Results: article PMC7806935, “Exosite inhibition of ADAMTS-5 by a glycoconjugated arylsulfonamide” (Scientific Reports, 2021)

Target: T1, ADAMTS-4 (Homo sapiens, UniProt O75173)
T1 construct: made in house
T1 sequence (O75173 213-837): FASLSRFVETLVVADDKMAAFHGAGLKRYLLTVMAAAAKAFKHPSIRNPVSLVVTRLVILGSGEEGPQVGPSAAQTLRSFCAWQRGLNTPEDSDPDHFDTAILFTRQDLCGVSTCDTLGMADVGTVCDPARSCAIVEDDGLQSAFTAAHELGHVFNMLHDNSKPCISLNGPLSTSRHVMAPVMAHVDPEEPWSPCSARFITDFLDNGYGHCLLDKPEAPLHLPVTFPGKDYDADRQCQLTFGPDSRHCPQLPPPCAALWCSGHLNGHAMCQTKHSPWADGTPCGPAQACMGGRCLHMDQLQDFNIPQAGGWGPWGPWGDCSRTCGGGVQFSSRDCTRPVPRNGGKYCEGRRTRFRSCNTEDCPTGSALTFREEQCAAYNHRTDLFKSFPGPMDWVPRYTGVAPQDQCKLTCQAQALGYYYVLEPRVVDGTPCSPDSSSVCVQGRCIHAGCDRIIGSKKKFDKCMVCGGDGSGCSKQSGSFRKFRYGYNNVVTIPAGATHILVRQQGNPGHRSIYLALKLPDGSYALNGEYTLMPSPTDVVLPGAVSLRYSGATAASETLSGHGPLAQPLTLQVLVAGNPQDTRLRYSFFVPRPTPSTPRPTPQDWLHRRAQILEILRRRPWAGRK
Assay: Versican digestion assay (V1-5GAG, sandwich ELISA), ADAMTS-4
Assay type: biochemical
Settings: protein substrate V1-5GAG; mean ± SEM (n = 3); read-out: IC50 (μM) V1-5GAG ATS4
Method: All enzyme assays were conducted in TNC-B buffer (50 mM Tris–HCl, pH 7.5, 150 mM NaCl, 10 mM CaCl2, and 0.02% NaN3) at 37 °C. To avoid the formation of inhibitor aggregates, the detergent Brij-35 (0.05%) was added to the assay buffer. No aggregation was visually observed at concentrations up to 2 mM. The inhibitor stock solutions in DMSO (10 mM) were diluted at different concentrations in assay buffer and incubated with ADAMTS-4 or ADAMTS-5 for 2 h at 37 °C. Percent of inhibition was calculated from control reactions containing only DMSO. IC50 values were determined using the formula: vi/v0 = 1/(1 + [I]/IC50) where vi is the initial velocity of substrate cleavage in the presence of the inhibitor at concentration [I] and v0 is the initial velocity in the presence of an equal concentration (v/v) of DMSO.
ADAMTS-5 full-length (FL) (final concentration 0.4 nM), ADAMTS-5 MDTCS (0.4 nM) ADAMTS-5 MD (26 nM) or ADAMTS-4 (5.5 nM) were incubated with different concentrations of inhibitors or DMSO for 2 h at 37 °C in TNC-B buffer before addition of V1-5GAG (50 nM). At different time points (0–20 min), sub-samples were removed and reactions were stopped with EDTA. Maxisorp plates (VWR, Lutterworth, UK) were coated with 5 μg/mL anti-DPEEAE neoepitope antibody (Cat n. PA1-1748A, Life Technologies, Paisley, UK) in carbonate buffer pH 9.6 (16 h, 4 °C). This neoepitope antibody specifically recognizes the N-terminal versican fragment versikine, generated when ADAMTS-5 cleaves versican at the Glu441↓442Ala bond. Washing steps were performed in triplicate with 300 μL phosphate buffered-saline (PBS) containing 0.1% Tween-20 between each step. Plates were blocked with 3% bovine serum albumin (BSA)/PBS for 2 h, at RT. The samples from the digestion experiments were diluted in 3% BSA/PBS and added to the plate (100 μL, 2 h, RT). Bound versikine fragments were detected using anti-G1 monoclonal antibody (Cat n. ab171887, Abcam, Cambridge, UK) (3 μg/mL in 0.5% BSA/PBS, 1.5 h, RT), followed by horseradish peroxidase (HRP)-conjugated anti-mouse antibodies (Cat. N. P044701-2, Agilent Technologies LTD, Cheadle, UK) (2.4 μg/mL, 1 h, RT). The assay was developed by addition of o-phenylenediamine dihydrochloride (OPD, Cat n. 34006, Sigma Aldrich, Gillingham, UK) for 10 min and reactions were stopped with 2 M H2SO4. The absorbance was measured at 492 nm using a BioTeK Epoch (BioTek, Swindon, UK) plate reader. For each dilution, the amount of neoepitope generated was derived from a standard curve (0–1.56 nM) of V1-5GAG completely digested with ADAMTS-5. Initial velocities were calculated from the concentration of versikine generated as a function of reaction time and IC50 values were determined.
For inhibition studies, initial rates of proteolysis (< 20% cleavage) were analyzed between 0 and 20 min. For determination of the specificity constants (kcat/Km), digestion reactions were allowed to occur to completion (0–2 h). Data were analyzed as previously described.

Row | IC50 [µM] | SMILES
1 | > 100 | CCC(C)N(Cc1cn(CCCOC(=O)c2ccccc2)nn1)S(=O)(=O)c1ccc(-c2ccccc2)cc1 (racemic) [Compound 6]
2 | > 100 | CCC(C)N(Cc1cn(CCCOC2OC(CO)C(O)C(O)C2NC(C)=O)nn1)S(=O)(=O)c1ccc(-c2ccccc2)cc1 (mixture of isomers) [Compound 4b]
